The numbers were not newly measured in patent publication US20220160648A1, “Composition Comprising Hydrolyzed Collagen and Cannabidiol and Use Thereof” (Inspired Health Products, LLC, priority 2019, published 2022), which cites them from elsewhere.

The conditions of data set [1]: reported.
The conditions of data set [2]: ingested, dosages from at least 3 g to as much as 60 g per day.

In the case of `C=C(C)[C@@H]1CCC(C)=C[C@H]1c1c(O)cc(CCCCC)cc1O` [CBD isolate, 2-[(1R,6R)-3-methyl-6-prop-1-en-2-ylcyclohex-2-en-1-yl]-5-pentylbenzene-1,3-diol], the anticonvulsant properties result in data set [1] is recorded as “did not”.

As to `NCC(=O)O` [glycine], the effect on sleep entry in data set [2] is listed as “beneficial effect on sleep”.
